Activity calls are given as the source filed them.
Columns and labels:
[1] = molecular target: T1, Tyrosine-protein phosphatase non-receptor type 7 (Homo sapiens, UniProt P35236); test: HePTP tyrosine phosphatase activity blockers – biochemical, absorbance, leukemia target, primary screen (AID 521); type: functional
T1 sequence (P35236 whole entry): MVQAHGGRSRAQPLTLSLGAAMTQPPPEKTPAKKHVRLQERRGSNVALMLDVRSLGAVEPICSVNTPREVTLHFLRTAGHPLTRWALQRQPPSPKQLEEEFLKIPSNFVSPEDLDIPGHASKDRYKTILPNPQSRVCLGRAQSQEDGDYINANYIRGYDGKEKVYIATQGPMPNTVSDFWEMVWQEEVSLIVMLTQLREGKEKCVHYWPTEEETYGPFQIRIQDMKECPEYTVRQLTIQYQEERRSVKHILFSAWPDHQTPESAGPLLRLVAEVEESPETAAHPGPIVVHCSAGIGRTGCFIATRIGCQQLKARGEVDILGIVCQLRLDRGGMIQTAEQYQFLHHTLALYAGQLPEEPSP

[2] = molecular target: Epstein-Barr nuclear antigen 1 (Epstein-Barr virus (strain B95-8) (HHV-4) (Human herpesvirus 4), UniProt P03211); test: inhibition of EBV nuclear antigen 1 DNA binding – biochemical, fluorescence polarization, 1536-well, dose response (AID 2381); design: species or system human gammaherpesvirus 4;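 further: fluorescence polarization of a Cy5 DNA probe bound by EBNA-1 protein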
[3] = molecular target: Lytic switch protein BZLF1 (Epstein-Barr virus (strain B95-8) (HHV-4) (Human herpesvirus 4), UniProt P03206); test: inhibition of BZLF1 ZTA DNA binding – biochemical, fluorescence polarization, Epstein-Barr virus, 1536-well, counter-screen for EBNA-1 inhibitor project, dose response (AID 2377); design: species or system human gammaherpesvirus 4;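 further: fluorescence polarization of Cy5-labelled ZRE DNA probe bound by purified Zta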
[4] = molecular target: Voltage-gated inwardly rectifying potassium channel KCNH2 (Homo sapiens, UniProt Q12809); test: concentration-dependent hERG rescue from blockers – cell-based, thallium flux, dose response (AID 2121); type: ADME
[5] = HPDE-C7 pancreatic duct cell viability loss – fluorescence, HTS (AID 430); type: functional, cell-based; settings: Homo sapiens
[6] = A Cell Based Secondary Assay To Explore Cytotoxicity of Compounds that Sensitize Mycobacterium Tuberculosis to Beta-Lactam Antibiotics.; type: functional
[7] = viability loss of HPDE-C7K cells – cell-based, fluorescence, HTS, primary screen (AID 431); type: functional; settings: Homo sapiens
[8] = growth inhibition of PfATP4-mutant resistant parasites – NITD609-resistant line, SYBR Green, dry powder, dose response (AID 1159571); type: functional, cell-based;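 further: parasites synchronized at ring stage by sorbitol before testing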
[9] = growth inhibition of yeast DHODH-expressing 3D7 parasites – SYBR Green, dry powder samples, dose response (AID 1159570); type: functional, cell-based;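 further: parasite growth measured after 72 hours of compound exposure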
[10] = Dd2 malaria parasite growth inhibition potency – SYBR Green, dry powder samples, dose response (AID 1159566); type: functional, cell-based;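 further: potency for growth inhibition with lower SYBR green DNA signal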
Paired box protein Pax-8 = Paired box protein Pax-8 (Homo sapiens, UniProt Q06710); test: PAX8 transcriptional activity inhibition in RMG-I – RMG-I cells, luciferase, cherry-pick, dose response (AID 687027); type: functional, cell-based;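 further: luciferase reporter driven by Pax8 target thyroperoxidase promoter measured by SteadyGlo luminescence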
[11] = reduced cellular PGC1a acetyl-lysine signal – cell-based, cherry-picked samples, dose response (AID 720514); type: functional;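 further: potency may reflect raised or lowered acetylation signal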
[12] = P. falciparum Dd2 growth inhibitors, dose response, SYBR Green, cherry-picked samples (AID 1159567); type: functional, cell-based
[13] = OVCAR8 cell viability loss – plate reader, dry powder samples, PAX8 project, dose response (AID 743197); type: functional, cell-based; settings: OVCAR-8
[14] = toxicity to human HepG2 hepatoma cells – cell-based, plate reader, dry powder samples, cytotoxicity control, dose response (AID 1159569); type: functional;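 further: inhibitor potency with signal falling toward the positive control level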
[15] = OVCAR-3 cell viability loss – plate reader, dry powder samples, PAX8 inhibitor project, dose response (AID 743044); type: functional, cell-based
[16] = Potency on glucagon-like peptide 1 release, dose-response in NCI-H716 cell line, half maximal inhibitory concentration (AID 1117344); type: functional, cell-based
[17] = glucagon-like peptide-1 release potency in STC-1, concentration-response, half-maximal inhibitory concentration in the STC-1 line (AID 1117345); type: functional, cell-based
[18] = IC50 of insulin release inhibition, rat insulinoma INS-1E line, 5 mM glucose, cell-based (AID 1117331); type: functional

Lytic switch protein BZLF1, sequence (P03206 whole entry): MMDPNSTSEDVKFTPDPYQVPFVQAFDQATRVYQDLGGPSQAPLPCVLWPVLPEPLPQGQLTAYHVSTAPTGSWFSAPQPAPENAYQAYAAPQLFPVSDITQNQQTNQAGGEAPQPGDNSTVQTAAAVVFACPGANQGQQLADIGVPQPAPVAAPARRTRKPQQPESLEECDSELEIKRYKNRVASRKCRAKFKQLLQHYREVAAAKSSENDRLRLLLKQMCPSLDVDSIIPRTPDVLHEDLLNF
Epstein-Barr nuclear antigen 1, sequence (P03211 whole entry): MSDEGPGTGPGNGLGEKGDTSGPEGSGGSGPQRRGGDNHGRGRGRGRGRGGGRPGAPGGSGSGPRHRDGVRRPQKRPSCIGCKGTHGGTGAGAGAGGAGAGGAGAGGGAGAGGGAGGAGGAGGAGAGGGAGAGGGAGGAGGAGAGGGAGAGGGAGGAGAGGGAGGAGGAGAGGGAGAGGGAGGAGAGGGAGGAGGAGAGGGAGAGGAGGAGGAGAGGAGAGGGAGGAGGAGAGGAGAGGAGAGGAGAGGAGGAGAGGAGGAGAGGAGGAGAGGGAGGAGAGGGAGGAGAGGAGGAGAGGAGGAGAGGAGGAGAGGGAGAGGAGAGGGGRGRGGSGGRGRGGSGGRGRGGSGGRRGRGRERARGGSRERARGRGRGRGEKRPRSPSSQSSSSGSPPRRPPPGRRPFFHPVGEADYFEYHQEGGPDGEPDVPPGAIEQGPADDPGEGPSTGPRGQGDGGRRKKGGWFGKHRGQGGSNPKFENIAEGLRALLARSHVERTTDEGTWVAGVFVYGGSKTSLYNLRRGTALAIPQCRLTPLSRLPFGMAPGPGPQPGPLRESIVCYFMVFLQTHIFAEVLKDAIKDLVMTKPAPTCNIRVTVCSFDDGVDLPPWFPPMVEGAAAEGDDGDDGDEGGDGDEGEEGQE
Paired box protein Pax-8, sequence (Q06710 whole entry): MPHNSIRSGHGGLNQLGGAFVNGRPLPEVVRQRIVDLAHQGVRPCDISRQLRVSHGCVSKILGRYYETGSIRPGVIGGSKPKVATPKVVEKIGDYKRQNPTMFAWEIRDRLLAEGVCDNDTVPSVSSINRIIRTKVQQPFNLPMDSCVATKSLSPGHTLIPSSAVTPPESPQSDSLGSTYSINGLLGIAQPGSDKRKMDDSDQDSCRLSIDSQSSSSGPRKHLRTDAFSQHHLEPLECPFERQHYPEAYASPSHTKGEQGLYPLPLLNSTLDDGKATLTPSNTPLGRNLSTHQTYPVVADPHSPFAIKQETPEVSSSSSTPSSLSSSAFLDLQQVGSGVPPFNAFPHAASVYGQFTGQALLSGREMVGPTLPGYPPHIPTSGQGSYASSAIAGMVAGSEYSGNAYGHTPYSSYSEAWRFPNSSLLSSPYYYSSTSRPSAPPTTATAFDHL
Voltage-gated inwardly rectifying potassium channel KCNH2, sequence (Q12809 whole entry): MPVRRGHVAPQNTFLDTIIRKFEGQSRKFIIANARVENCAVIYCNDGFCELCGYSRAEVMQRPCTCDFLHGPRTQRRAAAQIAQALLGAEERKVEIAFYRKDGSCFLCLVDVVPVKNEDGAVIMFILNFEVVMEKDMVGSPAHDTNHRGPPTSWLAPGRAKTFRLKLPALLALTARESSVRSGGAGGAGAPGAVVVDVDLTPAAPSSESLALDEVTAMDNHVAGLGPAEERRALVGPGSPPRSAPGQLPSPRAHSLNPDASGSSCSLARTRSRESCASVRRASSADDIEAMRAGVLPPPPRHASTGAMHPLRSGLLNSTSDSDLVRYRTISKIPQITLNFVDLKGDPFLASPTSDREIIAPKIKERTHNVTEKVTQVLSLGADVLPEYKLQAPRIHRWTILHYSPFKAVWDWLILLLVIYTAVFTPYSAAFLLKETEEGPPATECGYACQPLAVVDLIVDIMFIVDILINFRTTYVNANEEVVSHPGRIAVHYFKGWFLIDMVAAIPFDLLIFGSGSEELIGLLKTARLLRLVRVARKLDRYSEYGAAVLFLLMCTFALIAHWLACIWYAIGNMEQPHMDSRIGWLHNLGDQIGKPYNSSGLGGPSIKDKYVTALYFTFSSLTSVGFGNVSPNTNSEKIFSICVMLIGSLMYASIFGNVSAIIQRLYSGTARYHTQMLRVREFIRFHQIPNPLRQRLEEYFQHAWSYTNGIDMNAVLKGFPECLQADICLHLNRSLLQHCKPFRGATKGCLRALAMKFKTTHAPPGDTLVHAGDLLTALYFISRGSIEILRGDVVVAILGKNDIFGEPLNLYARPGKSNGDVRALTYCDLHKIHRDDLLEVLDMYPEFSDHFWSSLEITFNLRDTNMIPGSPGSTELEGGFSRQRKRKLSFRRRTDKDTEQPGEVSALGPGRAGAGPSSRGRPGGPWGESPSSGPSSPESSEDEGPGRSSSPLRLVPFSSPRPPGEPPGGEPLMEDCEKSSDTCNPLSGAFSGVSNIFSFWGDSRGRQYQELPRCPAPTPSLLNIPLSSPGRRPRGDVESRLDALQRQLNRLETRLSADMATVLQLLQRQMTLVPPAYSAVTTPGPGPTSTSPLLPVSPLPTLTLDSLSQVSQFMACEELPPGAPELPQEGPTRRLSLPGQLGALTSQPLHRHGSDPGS

For CCn1c(COc2ccccc2)nnc1SCC(=O)NC1CCCCC1, the IC50 [1] was > 100 µM (not active).

For CCN(CC)S(=O)(=O)c1ccc(C(=O)Nc2nnc(N=C(S)Nc3ccccc3)s2)cc1, the IC50 [2] was 6.46 µM (active) and the IC50 [3] was > 111 µM (not active).

For O=C(NCc1ccc2c(c1)OCO2)C1CCC(CNS(=O)(=O)c2ccc(Cl)cc2)CC1 (stereo not drawn), the IC50 [2] was > 148 µM (not active) and the IC50 [3] was > 111 µM (not active).

For Cc1ccc(C(=O)CC(=O)c2cccc(F)c2)c(O)c1, the EC50 [4] was 3.76 µM (active).

In the case of CC(O)/C=C/c1ccc2ccccc2n1 (stereo not drawn), the EC50 [5] is reported as 17.8 µM (active), the CC50 [6] is reported as 35.2 µM (active) and the EC50 [7] is reported as > 20 µM (not active).

With COc1cccc(-c2ccc([C@@H]3[C@@H]4CN(C(=O)C5CC5)C[C@H]3N4)cc2)c1 the AC50 [8] was 1.03 µM (active), the AC50 [9] was 0.85 µM (active) and the AC50 [10] was 0.634 µM (active). The AC50 (Paired box protein Pax-8) was 3.06 µM (active), the AC50 [11] was 24.1 µM (active) and the AC50 [12] was 0.949 µM (active). The AC50 [13] was 39 µM (active), the AC50 [14] was 34.3 µM (active) and the AC50 [15] was 43.6 µM (active).

In the case of C[C@H](CO)N1C[C@H](C)[C@@H](CN(C)Cc2ccc(-c3ccccc3)cc2)OCc2ccccc2-c2c(n(C)c3ccccc23)C1=O, the AC50 [8] is reported as 1.46 µM (active), the AC50 [9] is reported as 2.06 µM (active) and the AC50 [10] is reported as 0.865 µM (active). For the same compound, the AC50 [12] was 2.35 µM (active) and the AC50 [14] was 19.1 µM (active).

For CC1=C(C(=O)O)N2C(=O)[C@@H](NC(=O)[C@H](N)c3ccccc3)[C@H]2SC1 [CEPHALEXIN ANHYDROUS], the IC50 [16] was > 40 µM (inactive) and the IC50 [17] was > 40 µM (inactive).

In the case of CCCCCNC(=N)N/N=C/c1c[nH]c2ccc(OC)cc12 [TEGASEROD], the IC50 [18] is reported as 16.8 µM (inactive), the IC50 [16] is reported as 10.9 µM (inactive) and the IC50 [17] is reported as > 40 µM (inactive).

Source: ChEMBL document CHEMBL1201862, “PubChem BioAssay data set” (2004)
